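How tested: cells in 96-well plates exposed to compound for 48 hours at five concentrations. At the GI50, growth is halved. At the TGI there is no net growth.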
Assays:
Assay in all cases: NCI anticancer screen, dose series, 48 h
NCI-H23 lung = system: NCI-H23 lung
OVCAR-5 ovarian = system: OVCAR-5 ovarian
U251 CNS = system: U251 CNS
DLD-1 colon = system: DLD-1 colon
SF-539 CNS = system: SF-539 CNS
HOP-92 NSCLC = system: HOP-92 NSCLC
SK-MEL-2 melanoma = system: SK-MEL-2 melanoma
UO-31 renal = system: UO-31 renal
MALME-3M melanoma = system: MALME-3M melanoma
HCT-116 colon = system: HCT-116 colon

| SMILES | TGI (NCI-H23 lung) [µM] | TGI (OVCAR-5 ovarian) [µM] | TGI (U251 CNS) [µM] | TGI (DLD-1 colon) [µM] | TGI (SF-539 CNS) [µM] | TGI (HOP-92 NSCLC) [µM] | TGI (SK-MEL-2 melanoma) [µM] | TGI (UO-31 renal) [µM] | TGI (MALME-3M melanoma) [µM] | TGI (HCT-116 colon) [µM] | GI50 (SF-539 CNS) [µM] |
| --- | --- | --- | --- | --- | --- | --- | --- | --- | --- | --- | --- |
| COc1ccccc1/C=C1\CCC(CCN(C)C)(C2=CCCC2)C1=O (stereo unspecified) | > 100 | 82.5 | 31.1 | 38.5 | 29.5 | 46.6 | 35.6 | 31.4 | 30.3 | 25.3 | – |
| O=C(Nc1cccc([N+](=O)[O-])c1)C(=O)C(C(=O)c1ccccc1-c1ccccc1)C1OC(=O)c2ccccc21 (stereo unspecified) | 30.1 | 39.5 | 27.7 | 42.2 | 28.4 | 32.8 | 38.3 | 51.8 | 34.5 | 26.6 | – |
| O=C(/C=C/c1ccccc1)CC1OC(=O)c2ccccc21 (stereo unspecified) | > 100 | > 100 | > 100 | > 100 | > 100 | > 100 | > 100 | > 100 | > 100 | > 100 | – |
| C=CC1[C@H]2COC(C)(C)O[C@@H]2CC(=O)C1(C)C (stereo partly specified) | > 100 | > 100 | > 100 | > 100 | > 100 | > 100 | > 100 | > 100 | > 100 | > 100 | – |
| CCCCC1CC(c2cccc([N+](=O)[O-])c2)=NO1 (stereo unspecified) | > 100 | > 100 | > 100 | > 100 | > 100 | > 100 | > 100 | > 100 | > 100 | > 100 | – |
| CCOC(=O)C1(Br)C(c2ccccc2)NC(=O)NC1(C)Br (stereo unspecified) | > 100 | > 100 | 49.4 | > 100 | > 100 | > 93.5 | > 100 | > 100 | > 100 | > 100 | > 100 |
| CC1CC2CC(=O)CC3(C1)C2CCCN3CCCO (stereo unspecified) | > 100 | > 100 | > 100 | > 100 | > 100 | > 100 | > 100 | > 100 | > 100 | > 100 | – |
| C=C(CCCCCCCCC)CC(=O)SCCNC(=O)CCNC(=O)C(O)C(C)(C)COP(=O)(O)OP(=O)(O)OCC1OC(n2cnc3c(N)ncnc32)C(O)C1OP(=O)(O)O (stereo unspecified) | > 100 | > 100 | > 100 | > 100 | > 85.6 | > 100 | 99.3 | > 100 | > 100 | > 100 | – |
| O=Cc1ccccc1OCCOc1cc(OCCOc2ccccc2C=O)c(OCCOc2ccccc2C=O)cc1OCCOc1ccccc1C=O | > 100 | > 100 | > 50.1 | > 100 | > 79 | > 79.8 | > 100 | > 100 | > 100 | > 71.2 | – |

— PubChem BioAssay (NCI)
